This note sets out measurements from patent publication US10196390B2, “TYK2 inhibitors and uses thereof” (Nimbus Lakshmi, Inc., priority 2014, dated 2019).

Sequence of JAK2 (O60674 whole entry): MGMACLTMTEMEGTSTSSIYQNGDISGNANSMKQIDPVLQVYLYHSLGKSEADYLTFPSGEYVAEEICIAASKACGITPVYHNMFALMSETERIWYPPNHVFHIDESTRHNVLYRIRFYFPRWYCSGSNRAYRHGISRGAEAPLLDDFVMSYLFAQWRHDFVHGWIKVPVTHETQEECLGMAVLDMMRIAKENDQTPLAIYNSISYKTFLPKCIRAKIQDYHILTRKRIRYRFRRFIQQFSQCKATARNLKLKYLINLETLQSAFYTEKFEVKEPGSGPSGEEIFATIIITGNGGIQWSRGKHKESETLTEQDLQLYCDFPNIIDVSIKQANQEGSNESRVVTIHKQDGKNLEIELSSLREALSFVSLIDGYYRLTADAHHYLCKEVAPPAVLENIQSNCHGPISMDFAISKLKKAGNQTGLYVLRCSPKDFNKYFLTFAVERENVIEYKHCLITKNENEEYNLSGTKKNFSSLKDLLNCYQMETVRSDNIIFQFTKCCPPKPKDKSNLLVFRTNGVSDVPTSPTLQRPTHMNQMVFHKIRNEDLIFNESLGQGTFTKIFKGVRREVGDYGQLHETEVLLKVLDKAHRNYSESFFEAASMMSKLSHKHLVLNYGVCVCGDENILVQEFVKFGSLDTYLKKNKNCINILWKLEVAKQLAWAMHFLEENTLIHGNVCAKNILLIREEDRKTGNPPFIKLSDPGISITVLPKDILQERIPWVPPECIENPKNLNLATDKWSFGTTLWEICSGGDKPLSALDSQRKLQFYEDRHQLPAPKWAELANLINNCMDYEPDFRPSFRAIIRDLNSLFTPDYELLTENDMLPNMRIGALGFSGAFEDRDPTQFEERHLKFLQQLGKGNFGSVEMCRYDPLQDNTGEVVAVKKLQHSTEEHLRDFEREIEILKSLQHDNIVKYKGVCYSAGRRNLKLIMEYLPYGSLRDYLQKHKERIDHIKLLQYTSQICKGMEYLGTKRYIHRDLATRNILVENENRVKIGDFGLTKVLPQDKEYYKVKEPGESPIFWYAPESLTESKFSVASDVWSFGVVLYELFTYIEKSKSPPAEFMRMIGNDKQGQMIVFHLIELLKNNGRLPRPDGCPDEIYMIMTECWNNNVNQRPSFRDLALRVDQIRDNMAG

This assay concerns the target JAK2 (Homo sapiens (Human), UniProt O60674). As to the kind of experiment: JAK2 activity inhibition assay (radioactive kinase assay / Caliper assay). The class given is biochemical. Conditions: read-out: JAK2 Ki. Here is the method:
The caliper machine employs an off chip mobility shift assay to detect phosphorylated peptide substrates from kinase assays, using microfluidics technology. […] Compounds are serially diluted in DMSO then further diluted in assay buffer (25 mM HEPES, pH 7.5, 0.01% Brij-35, 0.01% Triton, 0.5 mM EGTA). 5 ul of diluted compound was added into wells first, then 10 ul of enzyme mix was added into wells, followed by 10 uL of substrate mix (peptide and ATP in 10 mM MgCl2) to start reaction. Reaction was incubated at 28° C. for 25 min and then added 25 ul stop buffer (100 mM HEPES, 0.015% Brij-35, 50 mM EDTA), followed by reading with Caliper.
In general, Ki refers to the equilibrium dissociation constant of an inhibitor or competing ligand from its target. With `O=C(Cc1ccc(Nc2nc(-c3c(F)cccc3F)nc3c2C(=O)NC3)cc1)NC1CNC1` [Compound I-12, N-(azetidin-3-yl)-2-(4-((2-(2,6-difluorophenyl)-5-oxo-6,7-dihydro-5H-pyrrolo[3,4-d]pyrimidin-4-yl)amino)phenyl)acetamide], the Ki was 100 to 1000 nM. For the molecule `COCCNC(=O)c1ccc(Nc2cc(-c3c(F)cccc3F)nc3c2C(=O)NC3)nc1` [Compound I-141, 6-((2-(2,6-difluorophenyl)-5-oxo-6,7-dihydro-5H-pyrrolo[3,4-b]pyridin-4-yl)amino)-N-(2-methoxyethyl)nicotinamide], the Ki lay within 10 to 100 nM. With `CCNC(=O)c1ccc(Nc2cc(-c3c(F)cccc3Cl)nc3c2C(=O)NC3)nc1` [Compound I-146, 6-((2-(2-chloro-6-fluorophenyl)-5-oxo-6,7-dihydro-5H-pyrrolo[3,4-b]pyridin-4-yl)amino)-N-ethylnicotinamide], the Ki lay in the range of 10 to 100 nM.

With `CCC1(c2ccc(Nc3nc(-c4c(F)cccc4F)nc4c3C(=O)NC4)cc2)CCNC1=O` (centres unmarked) [Compound I-175, 2-(2,6-difluorophenyl)-4-((4-(3-ethyl-2-oxopyrrolidin-3-yl)phenyl)amino)-6,7-dihydro-5H-pyrrolo[3,4-d]pyrimidin-5-one], the inhibitory constant (Ki) was in the range of 10 to 100 nM. Take `CC[C@]1(c2ccc(Nc3nc(-c4c(F)cccc4F)nc4c3C(=O)NC4)cc2)CCNC1=O` [Compound I-177, (R)-2-(2,6-difluorophenyl)-4-((4-(3-ethyl-2-oxopyrrolidin-3-yl)phenyl)amino)-6,7-dihydro-5H-pyrrolo[3,4-d]pyrimidin-5-one]: the Ki was 10 to 100 nM. For the molecule `COC(=O)C(C)c1ccc(Nc2nc(-c3c(F)cccc3F)nc3c2C(=O)NC3)cc1` (centres unmarked) [Compound I-188, methyl 2-(4-((2-(2,6-difluorophenyl)-5-oxo-6,7-dihydro-5H-pyrrolo[3,4-d]pyrimidin-4-yl)amino)phenyl)propanoate], the Ki lay within 10 to 100 nM. Take `C[C@@H](C(=O)O)c1ccc(Nc2nc(-c3c(F)cccc3F)nc3c2C(=O)NC3)cc1` [Compound I-190, (R)-2-(4-((2-(2,6-difluorophenyl)-5-oxo-6,7-dihydro-5H-pyrrolo-[3,4-d]pyrimidin-4-yl)amino)phenyl)propanoic Acid]: the Ki fell in the range of 100 to 1000 nM. For `C[C@H](C(=O)O)c1ccc(Nc2nc(-c3c(F)cccc3F)nc3c2C(=O)NC3)cc1` [Compound I-191, (S)-2-(4-((2-(2,6-difluorophenyl)-5-oxo-6,7-dihydro-5H-pyrrolo-[3,4-d]pyrimidin-4-yl)amino)phenyl)propanoic Acid], the Ki lay in the range of 100 to 1000 nM.

Consider `CN1CCN(C)C(C)(c2ccc(Nc3nc(-c4c(F)cccc4F)nc4c3C(=O)NC4)cc2)C1=O` (centres unmarked) [Compound I-209, 2-(2,6-difluorophenyl)-4-((4-(1,2,4-trimethyl-3-oxopiperazin-2-yl)phenyl)amino)-6,7-dihydro-5H-pyrrolo[3,4-d]pyrimidin-5-one], for which the Ki was in the range of 10 to 100 nM. Under `CN1CCN(C)[C@](C)(c2ccc(Nc3nc(-c4c(F)cccc4F)nc4c3C(=O)NC4)cc2)C1=O` [Compound I-210, (R)-2-(2,6-difluorophenyl)-4-((4-(1,2,4-trimethyl-3-oxopiperazin-2-yl)phenyl)amino)-6,7-dihydro-5H-pyrrolo[3,4-d]pyrimidin-5-one] stands 10 to 100 nM; under `O=C1NCc2nc(-c3c(F)cccc3F)cc(Nc3ccc(C(=O)N4CCOCC4)cn3)c21` [Compound I-212, 2-(2,6-difluorophenyl)-4-((5-(morpholine-4-carbonyl)pyridin-2-yl)amino)-6,7-dihydro-5H-pyrrolo[3,4-b]pyridin-5-one], 10 to 100 nM. As for `O=C1NCc2nc(-c3c(F)cccc3F)cc(Nc3ccc(F)cc3)c21` [Compound I-235, 2-(2,6-difluorophenyl)-4-((4-fluorophenyl)amino)-6,7-dihydro-5H-pyrrolo[3,4-b]pyridin-5-one], the Ki was in the range of 100 to 1000 nM. For the molecule `COc1ccc(Nc2cc(-c3c(F)cccc3F)nc3c2C(=O)NC3C)nc1` (centres unmarked) [Compound I-239, 2-(2,6-difluorophenyl)-4-((5-methoxypyridin-2-yl)amino)-7-methyl-6,7-dihydro-5H-pyrrolo[3,4-b]pyridin-5-one], the Ki fell in the range of 100 to 1000 nM. `CC1COCCN1c1ccc(Nc2cc(-c3c(F)cccc3F)nc3c2C(=O)NC3)nc1` (centres unmarked) [Compound I-244, 2-(2,6-difluorophenyl)-4-((5-(3-methylmorpholino)pyridin-2-yl)amino)-6,7-dihydro-5H-pyrrolo[3,4-b]pyridin-5-one]: the Ki was 10 to 100 nM.

Take `O=C1NCc2nc(-c3c(F)cccc3F)cc(Nc3ccc(C4=CCOCC4)cn3)c21` [Compound I-249, 2-(2,6-difluorophenyl)-4-((5-(3,6-dihydro-2H-pyran-4-yl)pyridin-2-yl)amino)-6,7-dihydro-5H-pyrrolo[3,4-b]pyridin-5-one]: the Ki fell in the range of 10 to 100 nM. Turning to `O=C1NCc2nc(-c3c(F)cccc3F)cc(Nc3ccc(C4(O)CCOCC4)cn3)c21` [Compound I-251, 2-(2,6-difluorophenyl)-4-((5-(4-hydroxytetrahydro-2H-pyran-4-yl)pyridin-2-yl)amino)-6,7-dihydro-5H-pyrrolo[3,4-b]pyridin-5-one], the Ki lay within 10 to 100 nM. `CC1(C)CCN(c2ccc(Nc3cc(-c4c(F)cccc4F)nc4c3C(=O)NC4)nc2)CC1` [Compound I-252, 2-(2,6-difluorophenyl)-4-((5-(4,4-dimethylpiperidin-1-yl)pyridin-2-yl)amino)-6,7-dihydro-5H-pyrrolo[3,4-b]pyridin-5-one]: the Ki is 100 to 1000 nM.

With `O=C1NCc2nc(-c3c(F)cccc3F)c(F)c(Nc3ccc(N4CCOCC4)cn3)c21` [Compound I-254, 2-(2,6-difluorophenyl)-3-fluoro-4-((5-morpholinopyridin-2-yl)amino)-6,7-dihydro-5H-pyrrolo[3,4-b]pyridin-5-one], the Ki is 10 to 100 nM. Next, `CC1(c2ccc(Nc3nc(-c4c(F)cccc4F)nc4c3C(=O)NC4)cc2)COC1` [Compound I-255, 2-(2,6-difluorophenyl)-4-((4-(3-methyloxetan-3-yl)phenyl)-amino)-6,7-dihydro-5H-pyrrolo[3,4-d]pyrimidin-5-one]: 10 to 100 nM; `C[C@@H]1CCC[C@H](C)N1c1ccc(Nc2cc(-c3c(F)cccc3F)nc3c2C(=O)NC3)nc1` [Compound I-261, 2-(2,6-difluorophenyl)-4-((5-((2R,6S)-2,6-dimethylpiperidin-1-yl)pyridin-2-yl)amino)-6,7-dihydro-5H-pyrrolo[3,4-b]pyridin-5-one]: 10 to 100 nM. Next, `CC1(C)CN(c2ccc(Nc3cc(-c4c(F)cccc4F)nc4c3C(=O)NC4)nc2)CC[C@@H]1O` [Compound I-267, (S)-2-(2,6-difluorophenyl)-4-((5-(4-hydroxy-3,3-dimethylpiperidin-1-yl)pyridin-2-yl)amino)-6,7-dihydro-5H-pyrrolo[3,4-b]pyridin-5-one]: 10 to 100 nM. On to `O=C1NCc2nc(-c3c(F)cccc3F)cc(Nc3ccc(N4CCCC(O)C4)cn3)c21` (centres unmarked) [Compound I-269, 2-(2,6-difluorophenyl)-4-((5-(3-hydroxypiperidin-1-yl)pyridin-2-yl)amino)-6,7-dihydro-5H-pyrrolo[3,4-b]pyridin-5-one], for which the Ki lay within 10 to 100 nM. Turning to `CC1(O)CCN(C(=O)c2ccc(Nc3cc(-c4c(F)cccc4F)nc4c3C(=O)NC4)cc2)CC1` [Compound I-275, 2-(2,6-difluorophenyl)-4-((4-(4-hydroxy-4-methylpiperidine-1-carbonyl)phenyl)amino)-6,7-dihydro-5H-pyrrolo[3,4-b]pyridin-5-one], the Ki lay in the range of 10 to 100 nM. For `O=C1NCc2nc(-c3c(F)cccc3F)cc(Nc3ccc(N4C5COCC4C5)cn3)c21` [Compound I-279, 4-((5-(3-oxa-6-azabicyclo[3.1.1]heptan-6-yl)pyridin-2-yl)amino)-2-(2,6-difluorophenyl)-6,7-dihydro-5H-pyrrolo[3,4-b]pyridin-5-one], the Ki was 10 to 100 nM. With `CC1(C)CCCC(=O)N1c1ccc(Nc2cc(-c3c(F)cccc3F)nc3c2C(=O)NC3)nc1` [Compound I-284, 2-(2,6-difluorophenyl)-4-((5-(2,2-dimethyl-6-oxopiperidin-1-yl)pyridin-2-yl)amino)-6,7-dihydro-5H-pyrrolo[3,4-b]pyridin-5-one], the Ki fell in the range of 10 to 100 nM.

Take `CCNC(=O)c1cnc(Nc2cc(-c3c(F)cccc3F)nc3c2C(=O)NC3)cc1F` [Compound I-286, 6-((2-(2,6-difluorophenyl)-5-oxo-6,7-dihydro-5H-pyrrolo[3,4-b]pyridin-4-yl)amino)-N-ethyl-4-fluoronicotinamide]: the Ki was 100 to 1000 nM.
